Laboratory results reported in patent publication US20230124492A1, “COMPOSITIONS AND METHODS FOR SUBSTITUTED 7-(PIPERAZIN-1-YL)PYRAZOLO[1,5-A]PYRIMIDINE ANALOGS AS INHIBITORS OF KRAS” (The Board of Regents of the University of Texas System, priority 2019, published 2023).

What was measured:
G12D KRAS [1] = target: T1, G12D KRAS (Homo sapiens, UniProt P01116, G12D); assay: Microscale thermophoresis (MST) Kd, G12D KRAS; format: binding
Procedure: (§1) Measurement of compound binding affinity to KKRAS using microscale thermophoresis (MST). MST is based on the movement of molecules in response to temperature gradient. […] KRAS was buffer-exchanged in the labeling buffer (40 mM HEPES, pH 7.5, 5 mM MgCl2, and 500 mM NaCl) using a spin column (provided in the kit) The concentration of the eluted protein was adjusted (10 to 20 μM) and 2-3 fold concentration of the dye (in labeling buffer) was added (200 μL final volume), The solution was incubated for 30 minutes at room temperature in the dark. Labeled KRAS was purified using the column provided in the kit or MST measurements, 16 point serial dilutions of ligands were made in MST Assay Buffer (40 mM HEPES, pH 7.5, 5 mM MgCl2, 100 mM NaCl+0.05% Tween-20+2-4% DMSO) and added to 100 nM KRAS. The solutions were loaded in capillaries and measurements were done using 20% LED power and 40% MST power. The data were fit in Igor Pro using Hill equation or the function in the instrument software.
(§2) Microscale thermophoresis (MST) assays were used to measure the affinity of lead compound analogs for KRAS. In a typical experiment, 100 nM KRAS labeled with a dye amine-reactive red NT-647 from NanoTemper) was mixed with different concentrations of ligand and incubated in a binding buffer (40 mM HEPES, pH 7.5, 5 mM MgCl2, 150 mM NaCl, 0.05% polysorbate 20, and 2% DMSO) at room temperature for 10 min before being loaded into a capillary. Thermophoresis is carried out and dissociation constant calculated by monitoring changes in fluorescence intensity. A monolith NT.115 Reader from NanoTemper can be used for MST experiments, with 40% MST and 20% LED power.
(§3) Note: For FIGS. 1A-H 1 (as well as one of the curves in FIGS. 2A-I), dissociation constant (Kd) was determined using either Microscale Thermophoresis (MST) or Intrinsic Fluorescence (IF) assay. MST assay uses fluorescence to monitor movement of molecules in response to temperature gradient created by infrared laser.

G12D KRAS [2] = target: T1, G12D KRAS; assay: Intrinsic fluorescence (IF) binding affinity, G12D KRAS bound to GNP
Procedure: (§4) FIGS. 2A-I illustrates the measurements of binding affinity of ligands to wild type (WT) or […] KRAS bound to the GTP analogue GNP and, for selected exemplary embodiments, effect of ligands on the rate of SOS-mediated nucleotide exchange reaction. Binding affinity was determined using intrinsic fluorescence, which made use of the ligands' intrinsic fluorescence and the accompanying change (decrease or increase in intensity) upon binding to KRAS.
(§5) FIGS. 2A-I illustrates the measurements of binding affinity of ligands to wild type (WT) or G12D KRAS bound to the GTP analogue GNP and, for selected exemplary embodiments, effect of ligands on the rate of SOS-mediated nucleotide exchange reaction, Binding affinity was determined using intrinsic fluorescence, which made use of the ligands' intrinsic fluorescence and the accompanying change (decrease or increase in intensity) upon binding to KRAS.
(§6) Solutions of ligand (0 to 50 μM) are mixed with equal volumes of KRAS (fixed concentration) and fluorescence spectra are obtained. The difference spectra (between KRAS-ligand mixture and ligand alone) are plotted and the area under the curve is obtained. Kd is estimated from the plot of area versus the ligand concentration. SOS-mediated nucleotide rate was monitored using the fluorescence intensity increase of BODIPY-GTP (B GTP) as it displaces GDP from KRAS. The reaction mixture (100 μL, 96 well plate) contained 0.5 μM K-Ras-GDP, 0.5 μm B-GTP, 0.5 μM SOS and varying concentrations of ligands (0 to 25 μM). B-GTP and SOS mixture was added just before measurements(excitation: 485 nm, emission: 510 nm; TECAN Infinite 200 plate reader). The reaction was monitored for 1 hour. The experiments were conducted with minimal light, Fluorescence intensities were normalized with respect to the value obtained at 120 s and the traces were fit with exponential function (Igor Pro, Wavemetrics).
as §3

WT KRAS [3] = target: T2, WT KRAS (Homo sapiens, UniProt P01116); assay: SOS-mediated nucleotide exchange assay, WT KRAS; format: biochemical; conditions: for EC50: SOS-mediated nucleotide exchange, dose-response; for SOS-mediated nucleotide exchange WT, single-dose test (effect / No effect): 25 microMolar ligand
T2 sequence (P01116 1-188 isoform P01116-2): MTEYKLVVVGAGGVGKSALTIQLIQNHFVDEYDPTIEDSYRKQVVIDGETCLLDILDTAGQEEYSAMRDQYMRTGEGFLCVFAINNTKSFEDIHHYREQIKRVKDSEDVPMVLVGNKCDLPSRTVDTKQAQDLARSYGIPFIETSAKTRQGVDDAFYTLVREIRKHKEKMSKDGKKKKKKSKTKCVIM
Procedure: (§7) In other experiments, the compounds disclosed herein can be tested for their abilities to affect rates of intrinsic and SOS-catalyzed nucleotide exchange and release. These assays use fluorescently-labeled BODIPY-GDP (BGDP) and BODIPY-GTP (BGTP), which have increased fluorescence intensity when bound to KRAS. Rate of nucleotide exchange is determined by rate of increase in fluorescence after BGTP is added to GDP-KRAS in the absence or presence of SOS Rate of nucleotide release is determined from rate of decrease in, fluorescence when excess GTP is added to KRAS loaded with BGDP in the presence or absence of SOS, where SOS is “Sons of Sevenless” referring to a set of genes encoding guanine nucleotide exchange factors.
as §6

WT KRAS [4] = target: T2, WT KRAS; assay: Intrinsic nucleotide exchange assay, WT KRAS; format: biochemical; conditions: for EC50: intrinsic nucleotide exchange, dose-response; for Intrinsic nucleotide exchange WT, single-dose test (effect / No effect): 25 microMolar ligand
Procedure: as §7

wild type (WT) KRAS = wild type (WT) KRAS (Homo sapiens, UniProt P01116); assay: Intrinsic fluorescence (IF) binding affinity, WT KRAS bound to GNP
Sequence of wild type (WT) KRAS (P01116 1-188 isoform P01116-2): as above
Procedure: as §4, §5, §6, §3

KRAS = KRAS (Homo sapiens, UniProt P01116, G12D); assay: Microscale thermophoresis (MST) binding affinity to KRAS (Table 1); conditions: 100 nM labeled KRAS, read-out: kD (dissociation constant)
Sequence of KRAS (P01116 whole entry G12D): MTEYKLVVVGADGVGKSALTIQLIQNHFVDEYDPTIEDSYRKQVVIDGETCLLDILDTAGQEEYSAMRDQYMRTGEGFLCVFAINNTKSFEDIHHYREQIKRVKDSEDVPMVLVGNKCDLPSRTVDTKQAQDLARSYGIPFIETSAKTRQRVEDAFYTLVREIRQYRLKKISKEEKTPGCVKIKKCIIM
Procedure: as §1, §2
Dissociation constants (IQ)) calculated from the thermophoresis results of selected compounds according to the present disclosure are presented in Table 1 below.
as §3

T1 sequence (P01116 1-188 isoform P01116-2 G12D): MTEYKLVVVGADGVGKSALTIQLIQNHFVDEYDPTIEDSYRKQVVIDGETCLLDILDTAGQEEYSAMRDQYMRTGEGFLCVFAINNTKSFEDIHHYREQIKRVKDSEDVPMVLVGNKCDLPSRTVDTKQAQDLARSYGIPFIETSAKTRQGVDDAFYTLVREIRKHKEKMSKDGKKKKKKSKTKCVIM

| Structure (SMILES) | Kd (G12D KRAS [2]) [µM] | Kd (wild type (WT) KRAS) [µM] | SOS-mediated nucleotide exchange WT, single-dose test (effect / No effect) (WT KRAS [3]) | other results |
| --- | --- | --- | --- | --- |
| Cc1nn2c(N3CCN(CCO)CC3)cc(-c3ccccc3)nc2c1-c1ccccc1 [C11″] | 4.54 ± 0.1 | – | – | Kd (G12D KRAS [1]): 0.87 ± 0.1 µM |
| Cc1cc(N2CCN(CCO)CC2)n2nc(C)c(-c3ccccc3)c2n1 [C13″] | – | – | – | EC50 (WT KRAS [3]): 57.8 ± 4 µM; EC50 (WT KRAS [4]): 28.8 ± 4 µM |
| OCCN1CCN(c2cc(-c3ccccc3)nc3c(-c4ccccc4)c(-c4ccccc4)nn23)CC1 [C14″] | 11.2 ± 0.2 | 12.3 ± 0.1 | – | EC50 (WT KRAS [4]): 12.4 ± 4.8 µM; Kd (G12D KRAS [1]): 0.88 ± 0.4 µM |
| COCCN1CCN(c2cc(-c3ccccc3)nc3c(-c4ccccc4)c(C)nn23)CC1 [C17″] | – | – | – | Kd (G12D KRAS [1]): > 76 µM |
| Cc1nn2c(N3CCN(CCO)CC3)cc(-c3ccc(F)cc3)nc2c1-c1ccccc1 [C21″] | 6.8 ± 0.5 | 4.6 ± 0.2 | – | EC50 (WT KRAS [3]): 18.8 ± 3.3 µM; EC50 (WT KRAS [4]): 34 ± 6.4 µM; Kd (G12D KRAS [1]): 0.52 ± 0.2 µM |
| Cc1nn2c(N3CCN(CCO)CC3)cc(-c3ccncc3)nc2c1-c1ccccc1 [C22″] | – | – | no effect in single dose @ 25 uM | Kd (G12D KRAS [1]): > 100 µM |
| Cc1nn2c(N3CCN(CCO)CC3)cc(-c3nccn3C)nc2c1-c1ccccc1 [C23″] | – | – | effect in single- dose @ 25 uM | Intrinsic nucleotide exchange WT, single-dose test (effect / No effect) (WT KRAS [4]): effect in single- dose @ 25 uM; Kd (G12D KRAS [1]): > 200 µM |
| COc1ccc(-c2cc(N3CCN(CCO)CC3)n3nc(C)c(-c4ccccc4)c3n2)cc1 [C25″] | – | – | effect in single- dose @ 25 uM | – |
| CCc1nn2c(N3CCN(CCO)CC3)cc(-c3ccccc3)nc2c1-c1ccccc1 [C26″] | – | – | effect in single- dose @ 25 uM | Intrinsic nucleotide exchange WT, single-dose test (effect / No effect) (WT KRAS [4]): effect in single- dose @ 25 uM |
| CCOC(=O)N1CCN(c2cc(-c3ccccc3)nc3c(-c4ccccc4)c(C)nn23)CC1 [C27″] | – | – | no effect in single dose @ 25 uM | – |
| Cc1nn2c(N3CCN(CCO)CC3)cc(-c3ccccc3)nc2c1-c1cc(F)cc(F)c1 [C28″] | 23.5 ± 0.8 | 21.7 ± 0.4 | No effect in single dose @ 25 uM | Intrinsic nucleotide exchange WT, single-dose test (effect / No effect) (WT KRAS [4]): effect in single- dose @ 25 uM |
| OCCN1CCN(c2cc(-c3ccccc3)nc3c(-c4ccccc4)c(C4CC4)nn23)CC1 [C29″] | – | – | effect in single- dose @ 25 uM | – |
| Cc1nn2c(N3CCN(CCO)CC3)cc(-c3ccc(O)cc3)nc2c1-c1ccccc1 [C30″] | 18.4 ± 10 | 12.2 ± 0.4 | – | EC50 (WT KRAS [3]): 15.9 ± 3.4 µM |
| Cc1nn2c(N3CCN(CCO)CC3)cc(-c3ccccc3)nc2c1-c1ccc(O)cc1 [C31″] | – | – | No effect in single dose @ 25 uM | Intrinsic nucleotide exchange WT, single-dose test (effect / No effect) (WT KRAS [4]): No effect in single dose @ 25 uM |
| OCCN1CCN(c2cc(-c3ccccc3)nc3c(-c4ccccc4)c(C(F)(F)F)nn23)CC1 [C32″] | – | – | effect in single- dose @ 25 uM | Intrinsic nucleotide exchange WT, single-dose test (effect / No effect) (WT KRAS [4]): effect in single- dose @ 25 uM |
| Cc1nn2c(N3CCN(CCO)CC3)cc(-c3cc(F)cc(F)c3)nc2c1-c1ccccc1 [C33″] | 79 ± 78 | – | No effect in single dose @ 25 uM | Intrinsic nucleotide exchange WT, single-dose test (effect / No effect) (WT KRAS [4]): effect in single- dose @ 25 uM |
| Cc1nn2c(N3CCN(CCO)CC3)cc(-c3cc(O)cc(O)c3)nc2c1-c1ccccc1 [C35″] | 21.6 ± 4 | 8.4 ± 0.2 | No effect in single dose @ 25 uM | Intrinsic nucleotide exchange WT, single-dose test (effect / No effect) (WT KRAS [4]): effect in single- dose @ 25 uM |

| Structure (SMILES) | Kd (G12D KRAS [2]) [µM] | Kd (wild type (WT) KRAS) [µM] | SOS-mediated nucleotide exchange WT, single-dose test (effect / No effect) (WT KRAS [3]) | other results |
| --- | --- | --- | --- | --- |
| OCCN1CCN(c2cc(-c3ccccc3)nc3c(-c4ccccc4)c(-c4ccccc4)nn23)CC1 [Compound C3] | – | – | – | Kd (KRAS): 0.88 ± 0.36 µM |
| Cc1nn2c(NCCN(C)C)cc(-c3ccccc3)nc2c1-c1ccccc1 [Compound C4] | – | – | – | Kd (KRAS): 0.99 ± 0.14 µM |
| COCCN1CCN(c2cc(-c3ccccc3)nc3c(-c4ccccc4)c(C)nn23)CC1 [Compound C6] | – | – | – | Kd (KRAS): > 76 µM |
| COc1ccccc1N1CCN(c2cc(-c3ccccc3)nc3c(-c4ccccc4)c(C)nn23)CC1 [Compound C7] | – | – | – | Kd (KRAS): > 86 µM |
| Cc1nn2c(NCCN(C)C)cc(-c3ccccc3)nc2c1-c1ccccc1 [Compound C15] | – | – | – | Kd (G12D KRAS [1]): 0.99 ± 0.1 µM |
| Cc1cc(NCCN(C)C)n2nc(C)c(-c3ccccc3)c2n1 [Compound C16] | – | – | – | Kd (G12D KRAS [1]): > 200 µM |
| COc1ccccc1N1CCN(c2cc(-c3ccccc3)nc3c(-c4ccccc4)c(C)nn23)CC1 [Compound C18] | – | – | – | Kd (G12D KRAS [1]): > 86 µM |
| OCCN1CCN(c2cc(-c3ccccc3)nc3c(-c4ccccc4)c(-c4cc[nH]c4)nn23)CC1 [Compound C36] | 22.4 ± 8 | 20.6 ± 0.4 | – | – |
| COc1ccc(-c2nn3c(N4CCN(CCO)CC4)cc(-c4ccccc4)nc3c2-c2ccccc2)cc1 [Compound C37] | 11.8 ± 0.2 | 22.6 ± 0.3 | – | – |
| OCCN1CCN(c2cc(-c3ccccc3)nc3c(-c4ccccc4)c(-c4ccc(O)cc4)nn23)CC1 [Compound C38] | 63.1 ± 5.3 | 19.1 ± 0.1 | – | – |
| Cc1nn2c(N3CCC(CCO)CC3)cc(-c3ccc(F)cc3)nc2c1-c1ccccc1 [Compound C39] | 22.9 ± 2.2 | 39.5 ± 1.9 | – | – |
| Cc1nn2c(N3CCC(CCO)CC3)cc(-c3ccccc3)nc2c1-c1ccccc1 [Compound C40] | 25.7 ± 0.2 | 63.1 ± 5.3 | – | – |
| Cc1nn2c(N3CCN(CCO)CC3)nc(-c3ccccc3)nc2c1-c1ccccc1 [Compound C41] | – | ~20 | – | EC50 (WT KRAS [4]): 15 to 25 µM |
| COCc1nn2c(N3CCN(CCO)CC3)cc(-c3ccccc3)nc2c1-c1ccccc1 [Compound C43] | – | 5 to 15 | – | – |
| Cc1cc2nc(-c3ccccc3)cc(N3CCN(CCO)CC3)n2n1 [Compound C44] | – | 5 to 15 | – | – |
| Cc1nn2c(NCCCN(C)C)cc(-c3ccccc3)nc2c1-c1ccccc1 [Compound C45] | – | 28.3 ± 5.4 | – | – |
